Test results: PMC6615261, “Repurposing Azithromycin and Rifampicin Against Gram-Negative Pathogens by Combination With Peptidomimetics” (Frontiers in Cellular and Infection Microbiology, 2019)

Columns and labels:
[1] = MTS/PMS cell viability assay; type: cell-based, mouse; conditions: mouse, NIH 3T3 fibroblasts, 1 h exposure, read-out: Cytotoxicity NIH 3T3 EC50 ± SD
How it was run: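 NIH 3T3 and HepG2 cells at 80–90% confluence exposed 1 h to compound in serum-free medium, then MTS/PMS added for 1 h at 37 °C; absorbance read at 492 nm. Viability normalized to medium (0% death) and 0.2% SDS (100% death); EC50 from Hill fit constrained 0–100%, technical triplicates.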

[2] = tested on: isolates of E. coli, K. pneumoniae and P. aeruginosa; assay: Induction of susceptibility in MDR isolates (summary over all three species); type: cell-based; conditions: peptidomimetic 1 at ≤1 μM; 30 of 36 isolates
From the text: Bacterial strains used in this study comprise MDR clinical isolates of E. coli ST131 (Cerquetti et al., [2010]) and K. pneumoniae ST258 (Jana et al., [2017]), and American type culture collection (ATCC) strains: ATCC 25922 (E. coli), ATCC 13883 (K. pneumoniae), and ATCC 27853 (P. aeruginosa). Additional clinical isolates of E. coli, K. pneumoniae, and P. aeruginosa resistant to β-lactams (including carbapenems and cephalosporins) were provided by Laurent Poirel, Université de Fribourg, Switzerland. The following growth media was routinely used for bacterial culturing: Luria-Burtani (LB), cation-adjusted Mueller-Hinton agar (MHA) and broth (MHB II). All assays were performed in cation-adjusted MHA or MHB II. […]
Minimal inhibitory concentrations (MICs) of peptidomimetics, antibiotics and their combinations were determined by broth microdilution according to the Clinical Laboratory Standards Institute performance standards (Clinical and Laboratory Standards Institute, [2013]). […] Potentiation of additional antibiotics by peptidomimetics was determined by using commercial 96-well plates containing varied concentrations of standard antibiotics (COMPAN1F; Trek Diagnostic Systems Inc.). The peptidomimetics were added immediately prior to inoculation with pathogen, and then MICs were determined as above. […] Minimal bactericidal concentrations (MBCs) were determined by using growth-curve assay plates. […]

MDR E. coli ST131 = assay: Screening of peptidomimetic-antibiotic combinations (growth / growth inhibition); type: cell-based, Escherichia coli; design: key to Growth in combination with RIF / Growth in combination with AZM: Growth (+); growth inhibition (–)
K. pneumoniae ST258 = assay: MIC by broth microdilution; type: cell-based, Klebsiella pneumoniae
How it was run: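 MICs were determined by CLSI broth microdilution. Combinations used fixed peptidomimetic:antibiotic ratios of 2:1 with rifampicin and 1:4 with azithromycin, and potentiation of other antibiotics was tested on COMPAN1F panels. MBCs came from OD600 growth curves over 24 h at 37°C, followed by plating of wells without growth onto MHA.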

NCCCC[C@H](NC(=O)CCN(Cc1ccccc1)C(=O)[C@H](CCCCN)NC(=O)CCN(Cc1ccccc1)C(=O)[C@H](CCCCN)NC(=O)CCN(Cc1ccccc1)C(=O)[C@H](CCCCN)NC(=O)CCN(Cc1ccccc1)C(=O)[C@H](CCCCN)NC(=O)CCN(Cc1ccccc1)C(=O)[C@H](CCCCN)NC(=O)CCN(Cc1ccccc1)C(=O)[C@H](CCCCN)NC(=O)CCN(Cc1ccccc1)C(=O)[C@@H](N)CCCCN)C(=O)N(CCC(N)=O)Cc1ccccc1 [Peptidomimetic 1, H-(Lys-βNPhe)8-NH2]
EC50 at 1 h [1]: 211 ± 26.8 µM | Isolates in which susceptibility to rifampicin and azithromycin was induced [2]: 83% | Screening result with rifampicin (MDR E. coli ST131; 0.5 μM peptidomimetic + 0.5 μg/mL rifampicin): inhibit growth | Screening result with azithromycin (MDR E. coli ST131; 0.5 μM peptidomimetic + 1 μg/mL azithromycin): prevented growth | Growth in combination with AZM (MDR E. coli ST131; peptidomimetic 0.5 μM + azithromycin 1 μg/mL): – | Growth in combination with RIF (MDR E. coli ST131; peptidomimetic 0.5 μM + rifampicin 0.5 μg/mL): – | Selectivity Index (SI) K. pneumoniae ST258 (K. pneumoniae ST258; average of EC50 (HepG2, NIH 3T3) divided by MIC): (10) | MIC K. pneumoniae ST258 (K. pneumoniae ST258; peptidomimetic alone): 16 µM
